The target in the assay is T1, Human TREM2 (Homo sapiens, UniProt Q9NZC2).
T1 construct: expressed in transfected cells
The experiment in a line: Human TREM2 cellular phospho-Syk AlphaLISA assay in HEK293/DAP12+TREM2 stable cell line. In kind it is cell-based. The note with it: HEK293/DAP12+TREM2 cells; for Emax: maximal response relative to the maximal response of the reference agonist, phospho-Syk AlphaLISA; for EC50: phospho-Syk (Tyr525/526) AlphaLISA signal, 30 min incubation. From the text: Human TREM2, in vitro Measurement of Triggering Receptor Expressed on Myeloid Cells 2 activity using cellular phosphorylation of Spleen Tyrosine Kinase (“Syk”) Assay
HEK-293 cells were co-transfected with separate plasmids encoding TREM2 and DAP12 to generate a stable cell line. After antibiotic selection, functional clone pool analysis and two successive limiting dilutions, the final clone “HEK293/DAP12+TREM2” underwent a qPCR analysis and a pharmacological validation.
TREM2 signaling through DAP12 was monitored in the HEK293/DAP12+TREM2 stable cell line by measuring the phosphorylation levels of the Syk kinase using the commercially available AlphaLISA SureFire Ultra p-SYK (Tyr525/526) Assay Kit (PerkinElmer #ALSU-PSYK), based on the Perkin Elmer AlphaScreen/AlphaLISA technology.
Compounds are transferred to the test plate and tested in full dose response, 8 concentrations in quadruplicate data points. Compound serial dilutions were performed at Cybi-Felix instrument in 100% DMSO and the dose response curves were assembled in automated fashion in 384MPT at Hamilton STARlet instrument. All the stock solutions were prepared at 20 mM in 100% DMSO. For compounds testing, the starting concentration was 100 μM, dilution steps 1:6. A different concentration's range was adapted for compound's activity based on the preliminary results. Finally, a 384MPT reformatted for all compounds at 8 concentrations, quadruplicates, was used as “mother to child” process with a CyBi@-Well dispenser in which 1 μL of each compound was moved into a destination plate pre-filled with […] of EMEM cell culture medium (BIOWHITTAKER_cat.BE12-125F), thus obtaining 3× concentrated compounds working solution. In columns 1-2 and 23-24 the control wells were added. In particular, dose response curves of a reference control agonist were included in column 1 and 24 as reference control agonist (Reference control agonists used include Human TREM2 polyclonal Antibody AF1828: R&D Systems; Human TREM2 monoclonal Antibody MAB1828: R&D Systems). The dose response curves were tested starting at 30 μM, dilution step 1:6. Both “source” compound plate and “destination” compound plate were barcoded and a relationship between the two plates was thus generated.
HEK293/DAP12+TREM2 cells were cultured in EMEM medium supplemented with IX Penicillin/Streptomycin (BIOWHITTAKER_cat.DE17-602E), ULTRAGLUTAMINE I 200 mM, 10% Fetal Bovine Serum plus antibiotics referred to as “HEK293 Culture Medium”. The day before the experiment, cells were detached by gentle wash with DPBS, followed by 5 min incubation at 37° C. with Trypsin solution. Cells were then diluted in HEK293 Culture Medium without antibiotics, counted and seeded into 384-well poly-D-Lysine coated microplates black/clear bottom (GREINER 781946) at a density of 10,000 cells/well in 25 μL/well by the use of a MATRIX WellMate dispenser. Plates were placed into a humidified cell culture incubator at 37° C. with 5% CO2 until the experimental day. 20-24 hours after seeding mature medium was removed and replaced with 10 μL/well of EMEM cell medium supplemented with 0.1% Pluronic F-68 non-ionic surfactant (Thermofisher, 24040032), referred to as “Assay Buffer”, using the CyBi@-Well instrument. Then 5 μL/well of Assay Buffer containing 3× concentrated test compounds or the reference control agonist (in 0.5% final DMSO concentration) were added to the cells with the CyBi@-Well instrument. Cell plates were incubated for 30 min into a humidified cell culture incubator at 37° C. with 5% CO2, then the medium was removed by manually discard. 20 μL/well of lysis buffer were dispensed using the CyBi@-Well instrument and plates were incubated for 10 min at room temperature on a plate shaker (350 rpm). Then, 10 μL/well of lysate were transferred to the Alpha plates.
The CyBi@-Well instrument was used to dispense 5 μL/well of AlphaLISA Acceptor Bead Solution in IX Immunoassay buffer (Perkin Elmer AL000F). […]
A general note: Alpha assays give light when donor and acceptor beads are brought close together.

T1 sequence (Q9NZC2 19-230): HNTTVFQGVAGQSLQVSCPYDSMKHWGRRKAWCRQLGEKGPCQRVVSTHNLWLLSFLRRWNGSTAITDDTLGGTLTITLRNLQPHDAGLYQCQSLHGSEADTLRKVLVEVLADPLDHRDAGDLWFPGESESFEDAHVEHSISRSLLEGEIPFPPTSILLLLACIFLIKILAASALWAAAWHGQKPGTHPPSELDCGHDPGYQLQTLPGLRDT
T1 sequence (O43914 22-113 partner): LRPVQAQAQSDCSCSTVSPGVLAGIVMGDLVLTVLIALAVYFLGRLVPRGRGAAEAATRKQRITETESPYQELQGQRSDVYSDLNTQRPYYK

For orientation: Emax means the greatest response seen or fitted, relative to the assay's reference. In general, EC50 refers to the concentration at which the effect is half-maximal. Higher therefore signals a less potent agent. `Cn1c(C(F)(F)F)nc2c(-c3ccc(F)cc3F)nc(N3CC(Oc4cnn(C5CC5)c4)C3)nc2c1=O` [Example 32, 6-(3-((1-cyclopropyl-1H-pyrazol-4-yl)oxy)azetidin-1-yl)-8-(2,4-difluorophenyl)-3-methyl-2-(trifluoromethyl)pyrimido[5,4-d]pyrimidin-4(3H)-one] came in with an Emax of less than 75% and an EC50 of 10 to 100 nM.

For `Cn1cc(-c2nc(N3CC(Oc4cnn(C5CC5)c4)C3)nc3c(=O)n(C)c(C(F)(F)F)nc23)ccc1=O` [Example 39, 6-(3-((1-cyclopropyl-1H-pyrazol-4-yl)oxy)azetidin-1-yl)-3-methyl-8-(1-methyl-6-oxo-1,6-dihydropyridin-3-yl)-2-(trifluoromethyl)pyrimido[5,4-d]pyrimidin-4(3H)-one], the Emax was 75 to 110% and the EC50 was in the range of 100 to 1000 nM.

The compound `Cn1c(C(F)(F)F)nc2c(-c3ccc(C#N)cc3F)nc(N3CC(Oc4cnn(C5CC5)c4)C3)cc2c1=O` [Example 41, 4-(6-(3-((1-cyclopropyl-1H-pyrazol-4-yl)oxy)azetidin-1-yl)-3-methyl-4-oxo-2-(trifluoromethyl)-3,4-dihydropyrido[3,4-d]pyrimidin-8-yl)-3-fluorobenzonitrile] gave an Emax of 75 to 110% and an EC50 of 100 to 1000 nM.

Compound `COc1ccc(-c2nc(N3CC(Oc4cnn(C5CC5)c4)C3)nc3c(=O)n(C)c(C(F)(F)F)nc23)c(F)c1` [Example 36, 6-(3-((1-cyclopropyl-1H-pyrazol-4-yl)oxy)azetidin-1-yl)-8-(2-fluoro-4-methoxyphenyl)-3-methyl-2-(trifluoromethyl)pyrimido[5,4-d]pyrimidin-4(3H)-one] showed an Emax of less than 75% and an EC50 of 100 to 1000 nM.

As for `Cn1c(C(F)(F)F)nc2c(-c3ccc(F)cc3F)nc(N3CC(Cc4cnn(C5CC5)c4)C3)nc2c1=O` [Example 31, 6-(3-((1-cyclopropyl-1H-pyrazol-4-yl)methyl)azetidin-1-yl)-8-(2,4-difluorophenyl)-3-methyl-2-(trifluoromethyl)pyrimido[5,4-d]pyrimidin-4(3H)-one], the Emax was 75 to 110% and the EC50 is 100 to 1000 nM.

In turn, `COc1cc(OC2CN(c3nc(-c4ccc(C#N)cc4F)c4nc(C(F)(F)F)n(C)c(=O)c4n3)C2)ccn1` [Example 21, 3-fluoro-4-(2-(3-((2-methoxypyridin-4-yl)oxy)azetidin-1-yl)-7-methyl-8-oxo-6-(trifluoromethyl)-7,8-dihydropyrimido[5,4-d]pyrimidin-4-yl)benzonitrile] had an Emax of 75 to 110% and an EC50 of less than 10 nM.

Compound `Cn1c(C(F)(F)F)nc2c(-c3ccc(C#N)cc3F)nc(N3CC(Oc4cnn(C(F)F)c4)C3)nc2c1=O` [Example 14, 4-(2-(3-((1-(difluoromethyl)-1H-pyrazol-4-yl)oxy)azetidin-1-yl)-7-methyl-8-oxo-6-(trifluoromethyl)-7,8-dihydropyrimido[5,4-d]pyrimidin-4-yl)-3-fluorobenzonitrile] yielded an Emax of 75 to 110% and an EC50 of 10 to 100 nM.

The record behind these values is patent US12459952B2, “TREM2 modulators” (Muna Therapeutics ApS, priority 2024, dated 2025).
